Experimental data reported in patent publication US20240083897A1, “GCN2 MODULATING COMPOUNDS AND USES THEREOF” (HiberCell, Inc., priority 2021, published 2024).
Like-named read-outs stand apart in the source and are kept apart here.

Biological target: GCN2 (Homo sapiens (Human), UniProt Q9P2K8)
Assay: TR-FRET biochemical assay for inhibition of GCN2
[1] = GCN2 2 nM, 100 nM GFP-eIF2a, 150 μM ATP, TR-FRET

Chain of GCN2 (Q9P2K8 whole entry): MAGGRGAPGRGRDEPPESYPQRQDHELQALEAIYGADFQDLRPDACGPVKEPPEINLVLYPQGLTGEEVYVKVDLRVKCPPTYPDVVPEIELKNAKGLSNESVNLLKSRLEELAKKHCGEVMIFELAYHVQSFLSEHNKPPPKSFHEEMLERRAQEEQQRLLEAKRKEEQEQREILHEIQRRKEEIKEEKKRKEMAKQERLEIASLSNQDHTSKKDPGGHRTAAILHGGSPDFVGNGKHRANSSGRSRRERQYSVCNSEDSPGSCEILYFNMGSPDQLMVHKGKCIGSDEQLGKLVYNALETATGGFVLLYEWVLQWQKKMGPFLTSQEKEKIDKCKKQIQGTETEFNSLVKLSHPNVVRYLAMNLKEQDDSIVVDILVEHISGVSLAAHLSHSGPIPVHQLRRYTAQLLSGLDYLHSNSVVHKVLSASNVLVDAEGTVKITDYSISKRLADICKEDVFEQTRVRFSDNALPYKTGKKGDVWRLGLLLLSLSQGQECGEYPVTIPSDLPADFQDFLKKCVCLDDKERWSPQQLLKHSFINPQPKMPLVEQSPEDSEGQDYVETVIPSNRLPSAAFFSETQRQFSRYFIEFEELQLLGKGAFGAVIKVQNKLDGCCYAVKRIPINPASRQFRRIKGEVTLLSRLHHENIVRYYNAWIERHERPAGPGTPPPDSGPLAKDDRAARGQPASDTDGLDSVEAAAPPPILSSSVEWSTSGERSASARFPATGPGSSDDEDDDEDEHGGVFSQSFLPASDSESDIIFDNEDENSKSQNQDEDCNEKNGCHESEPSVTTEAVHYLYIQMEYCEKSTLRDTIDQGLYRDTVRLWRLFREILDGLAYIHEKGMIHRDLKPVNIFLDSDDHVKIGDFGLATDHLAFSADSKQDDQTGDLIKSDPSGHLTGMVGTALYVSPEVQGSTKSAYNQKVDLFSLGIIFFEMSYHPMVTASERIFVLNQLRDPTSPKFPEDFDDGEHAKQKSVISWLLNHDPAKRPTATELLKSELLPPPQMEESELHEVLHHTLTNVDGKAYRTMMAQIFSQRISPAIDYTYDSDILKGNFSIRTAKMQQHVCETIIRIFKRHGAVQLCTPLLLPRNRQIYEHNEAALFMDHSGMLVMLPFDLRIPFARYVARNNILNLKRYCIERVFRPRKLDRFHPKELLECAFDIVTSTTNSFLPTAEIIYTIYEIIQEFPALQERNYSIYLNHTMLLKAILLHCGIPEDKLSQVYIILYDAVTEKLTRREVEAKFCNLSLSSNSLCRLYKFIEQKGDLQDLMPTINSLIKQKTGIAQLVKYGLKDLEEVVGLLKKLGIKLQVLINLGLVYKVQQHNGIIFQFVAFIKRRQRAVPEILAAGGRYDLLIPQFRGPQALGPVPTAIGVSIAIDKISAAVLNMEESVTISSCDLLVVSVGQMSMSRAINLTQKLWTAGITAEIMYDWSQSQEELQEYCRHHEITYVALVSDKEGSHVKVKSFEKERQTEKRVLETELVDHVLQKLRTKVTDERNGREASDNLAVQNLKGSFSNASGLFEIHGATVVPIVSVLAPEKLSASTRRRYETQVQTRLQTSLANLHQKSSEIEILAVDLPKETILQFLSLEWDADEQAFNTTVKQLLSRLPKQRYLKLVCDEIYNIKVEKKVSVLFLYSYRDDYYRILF

Structure (SMILES) | IC50 [1] | IC50
CNC(=O)c1ncn2c1CN(C)[C@H](c1c(F)ccc(NS(=O)(=O)c3cc(Cl)cnc3OC)c1F)C2 (single isomer, unassigned) [Compound 33-1] | > 1000 nM | 
CNC(=O)c1ncn2c1CN(C)[C@@H](c1c(F)ccc(NS(=O)(=O)c3cc(Cl)cnc3OC)c1F)C2 (single isomer, unassigned) [Compound 33-2] |  | 500 to 1000 nM
Cc1ncc(Cl)cc1S(=O)(=O)Nc1ccc(F)c([C@H]2CCc3c(-c4ncc[nH]4)ncn3C2)c1F (single isomer, unassigned) [Compound 84-1] | < 50 nM | 
Cc1ncc(Cl)cc1S(=O)(=O)Nc1ccc(F)c([C@@H]2CCc3c(-c4ncc[nH]4)ncn3C2)c1F (single isomer, unassigned) [Compound 84-2] | < 50 nM | 
CNC(=O)c1ncn2c1CCC(c1c(Cl)ccc(NS(=O)(=O)c3cc(F)cnc3OC)c1F)C2 (stereo in doubt) [Compound 155-1, (6R)-6-[6-chloro-2-fluoro-3-(5-fluoro-2-methoxypyridine-3-sulfonamido)phenyl]-N-methyl-5H,6H,7H,8H-imidazo[1,5-a]pyridine-1-carboxamide] | < 50 nM | 
CNC(=O)c1ncn2c1CCC(c1c(Cl)ccc(NS(=O)(=O)c3cc(F)cnc3OC)c1F)C2 (stereo in doubt) [Compound 155-2, (6S)-6-[6-chloro-2-fluoro-3-(5-fluoro-2-methoxypyridine-3-sulfonamido)phenyl]-N-methyl-5H,6H,7H,8H-imidazo[1,5-a]pyridine-1-carboxamide] |  | 50 to 500 nM
CNC(=O)c1ncn2nc(-c3c(F)ccc(NS(=O)(=O)c4cc(Cl)cnc4C)c3F)ccc12 [Compound 5, 2-[3-(5-chloro-2-methylpyridine-3-sulfonamido)-2,6-difluorophenyl]-N-methylimidazo[1,5-b]pyridazine-5-carboxamide] | < 50 nM | 
CNC(=O)c1ncn2cc(-c3c(F)ccc(NS(=O)(=O)c4cc(C#N)cnc4C)c3F)ccc12 [Compound 9, 6-[3-(5-cyano-2-methylpyridine-3-sulfonamido)-2,6-difluorophenyl]-N-methylimidazo[1,5-a]pyridine-1-carboxamide] | < 50 nM | 
CNC(=O)c1ncn2cc(-c3c(F)ccc(NS(=O)(=O)c4cc(F)cc5c4CCC5O)c3F)ccc12 (centres unmarked) [Compound 10, 6-[2,6-difluoro-3-(6-fluoro-1-hydroxy-2,3-dihydro-1H-indene-4-sulfonamido)phenyl]-N-methylimidazo[1,5-a]pyridine-1-carboxamide] | < 50 nM | 
CNC(=O)c1ncn2c(C)c(-c3c(F)ccc(NS(=O)(=O)c4cc(Cl)cnc4OC)c3F)ccc12 [Compound 11, 6-[3-(5-chloro-2-methoxypyridine-3-sulfonamido)-2,6-difluorophenyl]-N,5-dimethyl imidazo[1,5-a]pyridine-1-carboxamide] |  | 50 to 500 nM
CNC(=O)c1ncn2nc(-c3c(F)ccc(NS(=O)(=O)c4cc(F)cnc4C)c3F)ccc12 [Compound 12, 2-[2,6-difluoro-3-(5-fluoro-2-methylpyridine-3-sulfonamido)phenyl]-N-methylimidazo[1,5-b]pyridazine-5-carboxamide] | < 50 nM | 
CNC(=O)c1ncn2cc(-c3c(F)ccc(NS(=O)(=O)c4cc(C(F)(F)F)cnc4OC)c3F)ccc12 [Compound 13, 6-[2,6-difluoro-3-[2-methoxy-5-(trifluoromethyl)pyridine-3-sulfonamido]phenyl]-N-methylimidazo[1,5-a]pyridine-1-carboxamide] | < 50 nM | 
CNC(=O)c1ncn2c(OC)c(-c3c(F)ccc(NS(=O)(=O)c4cc(Cl)cnc4OC)c3F)ccc12 [Compound 15, 6-[3-(5-chloro-2-methoxypyridine-3-sulfonamido)-2,6-difluorophenyl]-5-methoxy-N-methylimidazo[1,5-a]pyridine-1-carboxamide] | > 1000 nM | 
CNC(=O)c1ncn2cc(-c3c(F)ccc(NS(=O)(=O)c4cc(Cl)cnc4OC)c3F)c(OC)nc12 [Compound 17, 3-[3-(5-chloro-2-methoxypyridine-3-sulfonamido)-2,6-difluorophenyl]-2-methoxy-N-methylimidazo[1,5-a]pyrimidine-8-carboxamide] |  | 50 to 500 nM
COc1ncc(F)cc1S(=O)(=O)Nc1ccc(F)c(-c2ccc3c(-c4ncc[nH]4)ncn3c2)c1F [Compound 18, N-[2,4-difluoro-3-[1-(1H-imidazol-2-yl)imidazo[1,5-a]pyridin-6-yl]phenyl]-5-fluoro-2-methoxypyridine-3-sulfonamide] | < 50 nM | 
Cc1ncc(F)cc1S(=O)(=O)Nc1ccc(F)c(-c2ccc3c(-c4ncc[nH]4)ncn3c2)c1F [Compound 19, N-[2,4-difluoro-3-[1-(1H-imidazol-2-yl)imidazo[1,5-a]pyridin-6-yl]phenyl]-5-fluoro-2-methylpyridine-3-sulfonamide] | < 50 nM | 

Structure (SMILES) | IC50 [1] | IC50
COc1ncc(C#N)cc1S(=O)(=O)Nc1ccc(F)c(-c2ccc3c(-c4ncc[nH]4)ncn3c2)c1F [Compound 20, 5-cyano-N-[2,4-difluoro-3-[1-(1H-imidazol-2-yl)imidazo[1,5-a]pyridin-6-yl]phenyl]-2-methoxypyridine-3-sulfonamide] | < 50 nM | 
CNC(=O)c1ncc2c(F)c(-c3c(F)ccc(NS(=O)(=O)c4cc(Cl)cnc4OC)c3F)ccn12 [Compound 21, 7-[3-(5-chloro-2-methoxypyridine-3-sulfonamido)-2,6-difluorophenyl]-8-fluoro-N-methylimidazo[1,5-a]pyridine-3-carboxamide] | < 50 nM | 
CNC(=O)c1ncn2cc(-c3c(F)ccc(NS(=O)(=O)c4cc(Cl)cnc4OC)c3F)c(=O)n(C)c12 [Compound 22, 3-[3-(5-chloro-2-methoxypyridine-3-sulfonamido)-2,6-difluorophenyl]-N,1-dimethyl-2-oxoimidazo[1,5-a]pyrimidine-8-carboxamide] |  | 50 to 500 nM
CNC(=O)c1ncn2cc(-c3c(F)ccc(NS(=O)(=O)c4cc(C#N)cc(C(F)(F)F)c4)c3F)ccc12 [Compound 23, 6-[3-[3-cyano-5-(trifluoromethyl)benzenesulfonamido]-2,6-difluorophenyl]-N-methylimidazo[1,5-a]pyridine-1-carboxamide] |  | 50 to 500 nM
CNC(=O)c1ncn2c(NC)c(-c3c(F)ccc(NS(=O)(=O)c4cc(Cl)cnc4OC)c3F)ccc12 [Compound 24, 6-[3-(5-chloro-2-methoxypyridine-3-sulfonamido)-2,6-difluorophenyl]-N-methyl-5-(methylamino)imidazo[1,5-a]pyridine-1-carboxamide] | > 1000 nM | 
Cc1ncc(Cl)cc1S(=O)(=O)Nc1ccc(F)c(-c2ccc3c(-c4ncc[nH]4)ncn3c2)c1F [Compound 25, 5-chloro-N-[2,4-difluoro-3-[1-(1H-imidazol-2-yl)imidazo[1,5-a]pyridin-6-yl]phenyl]-2-methylpyridine-3-sulfonamide] | < 50 nM | 
COc1ncc(Cl)cc1S(=O)(=O)Nc1ncc(F)c(-c2ccc3c(-c4ncc[nH]4)ncn3c2)c1F [Compound 26, 5-chloro-N-[3,5-difluoro-4-[1-(1H-imidazol-2-yl)imidazo[1,5-a]pyridin-6-yl]pyridin-2-yl]-2-methoxypyridine-3-sulfonamide] | < 50 nM | 
CNC(=O)c1ncn2c1CC[C@H](c1c(F)ccc(NS(=O)(=O)c3cc(Cl)cnc3OC)c1F)C2 [Compound 27-1, (6R)-6-[3-(5-chloro-2-methoxypyridine-3-sulfonamido)-2,6-difluorophenyl]-N-methyl-5H,6H,7H,8H-imidazo[1,5-a]pyridine-1-carboxamide] |  | 50 to 500 nM
CNC(=O)c1ncn2c1CC[C@@H](c1c(F)ccc(NS(=O)(=O)c3cc(Cl)cnc3OC)c1F)C2 [Compound 27-2, (6S)-6-[3-(5-chloro-2-methoxypyridine-3-sulfonamido)-2,6-difluorophenyl]-N-methyl-5H,6H,7H,8H-imidazo[1,5-a]pyridine-1-carboxamide] |  | 50 to 500 nM
O=S(=O)(Nc1ccc(F)c(-c2ccc3c(-c4ncc[nH]4)ncn3c2)c1F)c1cc(F)cc2c1CCC2O (centres unmarked) [Compound 28, N-[2,4-difluoro-3-[1-(1H-imidazol-2-yl)imidazo[1,5-a]pyridin-6-yl]phenyl]-6-fluoro-1-hydroxy-2,3-dihydro-1H-indene-4-sulfonamide] | < 50 nM | 
COc1ncc(Cl)cc1S(=O)(=O)Nc1ccc(F)c(-c2ccc3c(-c4nnc[nH]4)ncn3c2)c1F [Compound 29, 5-chloro-N-[2,4-difluoro-3-[1-(4H-1,2,4-triazol-3-yl)imidazo[1,5-a]pyridin-6-yl]phenyl]-2-methoxypyridine-3-sulfonamide] |  | < 50 nM
CNC(=O)c1ncc2cc(-c3c(F)ccc(NS(=O)(=O)c4cc(Cl)cnc4OC)c3F)ccn12 [Compound 30, 7-[3-(5-chloro-2-methoxypyridine-3-sulfonamido)-2,6-difluorophenyl]-N-methylimidazo[1,5-a]pyridine-3-carboxamide] | < 50 nM | 
COc1ncc(Cl)cc1S(=O)(=O)Nc1ccc(F)c(-c2cn3cnc(-c4ncc[nH]4)c3cn2)c1F [Compound 31, 5-chloro-N-[2,4-difluoro-3-[1-(1H-imidazol-2-yl)imidazo[1,5-a]pyrazin-6-yl]phenyl]-2-methoxypyridine-3-sulfonamide] | < 50 nM | 
COc1ncc(Cl)cc1S(=O)(=O)Nc1ccc(F)c(-c2ccc3c(-c4ccn[nH]4)ncn3c2)c1F [Compound 32, 5-chloro-N-[2,4-difluoro-3-[1-(2H-pyrazol-3-yl)imidazo[1,5-a]pyridin-6-yl]phenyl]-2-methoxypyridine-3-sulfonamide] | < 50 nM | 
COc1ncc(Cl)cc1S(=O)(=O)Nc1ccc(F)c(-c2ccc3c(-c4cnn[nH]4)ncn3c2)c1F [Compound 34, 5-chloro-N-[2,4-difluoro-3-[1-(3H-1,2,3-triazol-4-yl)imidazo[1,5-a]pyridin-6-yl]phenyl]-2-methoxypyridine-3-sulfonamide] | < 50 nM | 
COc1ncc(Cl)cc1S(=O)(=O)Nc1ccc(F)c(-c2ccn3c(-c4ncc[nH]4)ncc3c2)c1F [Compound 35, 5-chloro-N-[2,4-difluoro-3-[3-(1H-imidazol-2-yl)imidazo[1,5-a]pyridin-7-yl]phenyl]-2-methoxypyridine-3-sulfonamide] | < 50 nM | 
